In the supplement of paper PMC13380429:

Columns and labels:
Conditions in all cases: 72 h
Caco-2 [1] = experiment: cell viability relative to DMSO; higher = less toxic
Calu-3 [2] = experiment: as above
HepG2 [3] = experiment: as above
U2OS [4] = experiment: as above
Vero E6 [5] = experiment: as above
Caco-2 [6] = experiment: relative viability EC50 (midpoint between 100% and the lowest measured viability); higher = less toxic
Calu-3 [7] = experiment: as above
HepG2 [8] = experiment: as above
U2OS [9] = experiment: as above
Vero E6 [10] = experiment: as above
Caco-2 [11] = experiment: drug sensitivity score (DSS) for viability; higher = more toxic; extreme values may be limits of the assay
Calu-3 [12] = experiment: as above
HepG2 [13] = experiment: as above
U2OS [14] = experiment: as above
Vero E6 [15] = experiment: as above

SMILES	cell viability (Caco-2 [1]; 1 nM) [%]	cell viability (Caco-2 [1]; 10 nM) [%]	cell viability (Caco-2 [1]; 100 nM) [%]	cell viability (Caco-2 [1]; 1000 nM) [%]	cell viability (Caco-2 [1]; 10000 nM) [%]	cell viability (Calu-3 [2]; 1 nM) [%]	cell viability (Calu-3 [2]; 10 nM) [%]	cell viability (Calu-3 [2]; 100 nM) [%]	cell viability (Calu-3 [2]; 1000 nM) [%]	cell viability (Calu-3 [2]; 10000 nM) [%]	cell viability (HepG2 [3]; 1 nM) [%]	cell viability (HepG2 [3]; 10 nM) [%]	cell viability (HepG2 [3]; 100 nM) [%]	cell viability (HepG2 [3]; 1000 nM) [%]	cell viability (HepG2 [3]; 10000 nM) [%]	cell viability (U2OS [4]; 1 nM) [%]	cell viability (U2OS [4]; 10 nM) [%]	cell viability (U2OS [4]; 100 nM) [%]	cell viability (U2OS [4]; 1000 nM) [%]	cell viability (U2OS [4]; 10000 nM) [%]	cell viability (Vero E6 [5]; 1 nM) [%]	cell viability (Vero E6 [5]; 10 nM) [%]	cell viability (Vero E6 [5]; 100 nM) [%]	cell viability (Vero E6 [5]; 1000 nM) [%]	cell viability (Vero E6 [5]; 10000 nM) [%]	relative viability EC50 (Caco-2 [6]) [µM]	relative viability EC50 (Calu-3 [7]) [µM]	relative viability EC50 (HepG2 [8]) [µM]	relative viability EC50 (U2OS [9]) [µM]	relative viability EC50 (Vero E6 [10]) [µM]	drug sensitivity score (Caco-2 [11])	drug sensitivity score (Calu-3 [12])	drug sensitivity score (HepG2 [13])	drug sensitivity score (U2OS [14])	drug sensitivity score (Vero E6 [15])
O=c1c(-c2ccc(O)cc2)coc2c([C@@H]3O[C@H](CO)[C@@H](O)[C@H](O)[C@H]3O)c(O)ccc12 [puerarin]	98.4	99.8	96	98	101	89.3	92.3	97.5	89.6	95.6	94.4	102	94.8	107	98.2	99.7	95.2	96	94.6	100	99.7	99.5	99.9	107	103	> 10	> 10	> 10	> 10	> 10	0	0	0	0	0
COc1cc(NS(C)(=O)=O)ccc1Nc1c2ccccc2nc2ccccc12 [amsacrine]	101	90.9	97.3	91.6	14.3	105	93.7	80.3	61.5	12.3	87.4	89.9	78.5	48.8	29	103	98.1	99.5	96.9	37.2	93	89.3	94.6	65.2	41.7	2.35	0.866	0.241	2.79	0.677	6.1	10.3	12.6	3.9	7.4
NC(=O)c1cn([C@@H]2O[C@H](CO)[C@@H](O)[C@H]2O)c2ncnc(N)c2c1=O [API-1]	92.3	92.9	85	80.1	36.4	97	107	87.5	52.7	20.7	106	97.9	84.9	39	4.5	95.7	98.8	91.1	97.5	0.9	97	89.7	94.8	93	47.3	1.53	0.639	0.544	2.98	2.1	5.6	10.6	13.6	5.9	4
COC(=O)c1sccc1S(=O)(=O)Nc1ccc(Nc2ccccc2)cc1OC [GSK0660]	96.8	86.2	104	105	98.9	106	102	101	93.1	102	91.4	109	102	101	92.6	101	95.4	98.8	95.5	93.5	91.9	104	94.8	102	104	> 10	> 10	> 10	> 10	> 10	0	0	0	0	0
NCC(O)c1ccc(O)cc1 (stereo not given) [octopamine]	87.1	96.9	94	100	86.1	108	105	93	108	95.6	91.7	103	95.9	97.5	117	95.1	97.3	101	96.5	95.6	106	96.6	101	85.1	100	> 10	> 10	> 10	> 10	> 10	0.1	0	0	0	0
Cc1cc(O)c(-c2ccc([C@@H](C)CN)cc2)c2c1[nH]c(=O)c1sccc12 [OTS514]	98.6	87.1	83.6	29.9	25.5	105	92.5	81.7	23.9	38.8	109	99.4	46.3	3.1	1.1	96.3	97.8	96.6	1.1	1.1	102	98.8	93.2	85.4	6	0.21	0.16	0.0917	0.291	1.95	14.9	16.7	24.2	18.2	7.6
CC[C@H](CC[C@@H](C)[C@H]1CC[C@H]2[C@@H]3CC=C4C[C@@H](O[C@@H]5O[C@H](CO)[C@@H](O)[C@H](O)[C@H]5O)CC[C@]4(C)[C@H]3CC[C@]12C)C(C)C [daucosterol]	88.7	99.4	107	102	100	98.4	106	99.3	108	110	92.5	96.2	102	101	106	97.2	98.1	101	100	103	95.9	100	94.5	90.5	102	> 10	> 10	> 10	> 10	> 10	0	0	0	0	0
C[C@]12CCC(=O)C(O)=C1CC[C@@H]1[C@@H]2CC[C@]2(C)C(=O)CC[C@@H]12 [formestane]	114	96.9	95	105	117	98.7	96.1	91.4	93.8	93.3	117	111	108	112	98.6	102	98.2	102	95.3	105	97.8	92.4	86.7	103	104	> 10	> 10	> 10	> 10	> 10	0	0	0	0	0
CCC(C/C=C/c1ccccc1)(c1ccccc1)N(C)CC1CC1 (stereo not given) [igmesine]	95.4	97	95.2	102	103	99	104	96.8	102	97.8	102	105	101	102	96.8	94.7	99	100	101	102	98.8	97.7	94.2	98.1	107	> 10	> 10	> 10	> 10	> 10	0	0	0	0	0
CN[C@@H](C)CCC=C(C)C [isometheptene-mucate]	93.4	102	93.7	93.9	106	94	100	98.1	100	108	96.1	101	107	94.5	95	104	96.5	98.7	103	105	91.1	96.2	92.5	97	104	> 10	> 10	> 10	> 10	> 10	0	0	0	0	0
C[C@]12CC[C@@H]3c4ccc(O)cc4C[C@@H](CCCCCCCCC[S+]([O-])CCCC(F)(F)C(F)(F)F)[C@H]3[C@@H]1CC[C@@H]2O (stereo not given in full) [fulvestrant]	104	107	102	110	85.4	96.7	114	104	90.2	92.7	100	102	96.8	98	86.7	105	110	102	103	88.7	100	102	100	96.9	99.6	> 10	> 10	> 10	> 10	> 10	0.1	0	0.3	0	0
CC[C@H](C)[C@@H]1NC(=O)[C@H](Cc2ccc(O)cc2)NC(=O)[C@@H](N)CSSC[C@@H](C(=O)N2CCC[C@H]2C(=O)N[C@@H](CC(C)C)C(=O)NCC(N)=O)NC(=O)[C@H](CC(N)=O)NC(=O)[C@H](CCC(N)=O)NC1=O [oxytocin]	95.5	122	82.2	100	100	92	93.8	98.9	103	97	114	96.1	105	87.7	99.2	98.2	99	98.3	98.5	95.7	106	112	98.7	105	99.2	> 10	> 10	> 10	> 10	> 10	0	0	0	0	0
O=C(O)Cc1ccc2c(c1)C(=O)c1ccccc1CO2 [isoxepac]	94.7	102	109	100	93.6	96.9	97.9	98.5	101	98.5	99.1	103	97.5	101	91.2	102	95.4	101	98.3	101	98.3	97.5	101	101	100	> 10	> 10	> 10	> 10	> 10	0	0	0	0	0
